Measurements reported in PubChem BioAssay (NCI).
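Five concentrations, 48 hours, 96-well plates. Definition used: TGI = concentration required for complete inhibition of growth.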

Experiments:
Experiment in all cases: DTP human tumour cell line panel, 48 h
786-0 renal = tested on: 786-0 renal
A498 renal = tested on: A498 renal
A549 NSCLC = tested on: A549 NSCLC
ACHN renal = tested on: ACHN renal
CAKI-1 renal = tested on: CAKI-1 renal
CCRF-CEM leukemia = tested on: CCRF-CEM leukemia
COLO 205 colon = tested on: COLO 205 colon
DU-145 prostate = tested on: DU-145 prostate
EKVX NSCLC = tested on: EKVX NSCLC
HCT-116 colon = tested on: HCT-116 colon
HCT-15 colon = tested on: HCT-15 colon
HL-60(TB) leukemia = tested on: HL-60(TB) leukemia
HOP-92 NSCLC = tested on: HOP-92 NSCLC
HS 578T breast = tested on: HS 578T breast
HT29 colon = tested on: HT29 colon
IGROV1 ovarian = tested on: IGROV1 ovarian
K-562 leukemia = tested on: K-562 leukemia
KM12 colon = tested on: KM12 colon
LOX IMVI melanoma = tested on: LOX IMVI melanoma
M14 melanoma = tested on: M14 melanoma
MALME-3M melanoma = tested on: MALME-3M melanoma
MCF7 breast = tested on: MCF7 breast
MDA-MB-231 breast = tested on: MDA-MB-231 breast
MDA-MB-435 = tested on: MDA-MB-435
MDA-N = tested on: MDA-N
MOLT-4 leukemia = tested on: MOLT-4 leukemia
NCI-H226 lung = tested on: NCI-H226 lung
NCI-H23 lung = tested on: NCI-H23 lung
NCI-H460 lung = tested on: NCI-H460 lung
NCI-H522 lung = tested on: NCI-H522 lung
NCI/ADR-RES ovarian = tested on: NCI/ADR-RES ovarian
OVCAR-3 ovarian = tested on: OVCAR-3 ovarian
OVCAR-4 ovarian = tested on: OVCAR-4 ovarian
OVCAR-5 ovarian = tested on: OVCAR-5 ovarian
OVCAR-8 ovarian = tested on: OVCAR-8 ovarian
PC-3 prostate = tested on: PC-3 prostate
RPMI-8226 leukemia = tested on: RPMI-8226 leukemia
RXF 393 renal = tested on: RXF 393 renal
SF-268 CNS = tested on: SF-268 CNS
SF-295 CNS = tested on: SF-295 CNS
SF-539 CNS = tested on: SF-539 CNS
SK-MEL-2 melanoma = tested on: SK-MEL-2 melanoma
SK-MEL-28 melanoma = tested on: SK-MEL-28 melanoma
SK-MEL-5 melanoma = tested on: SK-MEL-5 melanoma
SK-OV-3 ovarian = tested on: SK-OV-3 ovarian
SN12C renal = tested on: SN12C renal
SNB-19 CNS = tested on: SNB-19 CNS
SNB-75 CNS = tested on: SNB-75 CNS
SR leukemia = tested on: SR leukemia
SW-620 colon = tested on: SW-620 colon
T-47D breast = tested on: T-47D breast
TK-10 renal = tested on: TK-10 renal
U251 CNS = tested on: U251 CNS
UACC-257 melanoma = tested on: UACC-257 melanoma
UACC-62 melanoma = tested on: UACC-62 melanoma
UO-31 renal = tested on: UO-31 renal

In the case of O=C1C(C(O)(C(F)(F)F)C(F)(F)F)CCC1C(O)(C(F)(F)F)C(F)(F)F (stereo unspecified), the TGI (786-0 renal) is reported as over 38.8 µM, the TGI (A498 renal) is reported as 6.23 µM and the TGI (A549 NSCLC) is reported as over 65.4 µM. For the same compound, the TGI (ACHN renal) was over 61.5 µM, the TGI (CAKI-1 renal) was 19.8 µM and the TGI (CCRF-CEM leukemia) was over 100 µM. The TGI (COLO 205 colon) was 1.86 µM, the TGI (DU-145 prostate) was over 100 µM and the TGI (EKVX NSCLC) was over 100 µM. The TGI (HCT-116 colon) was 13.1 µM, the TGI (HCT-15 colon) was over 100 µM and the TGI (HL-60(TB) leukemia) was 6.44 µM. The TGI (HOP-92 NSCLC) was 0.245 µM, the TGI (HS 578T breast) was 51.9 µM and the TGI (HT29 colon) was over 29.3 µM. It also gave a TGI (IGROV1 ovarian) of over 86 µM, a TGI (K-562 leukemia) of over 100 µM and a TGI (KM12 colon) of 37.3 µM. The TGI (LOX IMVI melanoma) was 10.6 µM, the TGI (M14 melanoma) was 47 µM and the TGI (MALME-3M melanoma) was 17.9 µM. For the same compound, the TGI (MCF7 breast) was 2.26 µM, the TGI (MDA-MB-231 breast) was 17.9 µM and the TGI (MDA-MB-435) was over 67.6 µM. For the same compound, the TGI (MDA-N) was over 81.8 µM, the TGI (MOLT-4 leukemia) was over 100 µM and the TGI (NCI-H226 lung) was 4.44 µM. It also gave a TGI (NCI-H23 lung) of 6.75 µM, a TGI (NCI-H460 lung) of over 100 µM and a TGI (NCI-H522 lung) of 18.9 µM. For the same compound, the TGI (NCI/ADR-RES ovarian) was 32.6 µM, the TGI (OVCAR-3 ovarian) was over 100 µM and the TGI (OVCAR-4 ovarian) was over 100 µM. For the same compound, the TGI (OVCAR-5 ovarian) was over 100 µM, the TGI (OVCAR-8 ovarian) was over 83.6 µM and the TGI (PC-3 prostate) was 98.3 µM. For the same compound, the TGI (RPMI-8226 leukemia) was 13.5 µM, the TGI (RXF 393 renal) was 26 µM and the TGI (SF-268 CNS) was over 100 µM. For the same compound, the TGI (SF-295 CNS) was 21 µM, the TGI (SF-539 CNS) was over 43.5 µM and the TGI (SK-MEL-2 melanoma) was 11 µM. The TGI (SK-MEL-28 melanoma) was over 73.2 µM, the TGI (SK-MEL-5 melanoma) was 16.2 µM and the TGI (SK-OV-3 ovarian) was over 100 µM. It also gave a TGI (SN12C renal) of 30.9 µM, a TGI (SNB-19 CNS) of over 100 µM and a TGI (SNB-75 CNS) of 7.61 µM. It also gave a TGI (SR leukemia) of 43.8 µM, a TGI (SW-620 colon) of over 100 µM and a TGI (T-47D breast) of 2.13 µM. The TGI (TK-10 renal) was over 100 µM, the TGI (U251 CNS) was 99.5 µM and the TGI (UACC-257 melanoma) was 34.8 µM. It also gave a TGI (UACC-62 melanoma) of over 100 µM and a TGI (UO-31 renal) of 34.3 µM.
